Assays:
Settings in all cases: incubation time: 72 h
HCC1143 = test: drug sensitivity score (DSS), CellTox Green (DSS (AUC-based score)); higher = stronger drug effect (viability inhibition or cytotoxicity); extreme values may be limits of the assay
Procedure, shortened: (§1)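 In 384-well plates, compound was laid out at 5 concentrations in 10-fold steps over a 10,000-fold range specific to each compound, and breast cancer cell lines were seeded on top in 20 µl suspension for a 72 h incubation. CellTox Green fluorescence and then CellTiter-Glo luminescence were read, and each plate was normalised to 0.1 % DMSO and a positive kill control. The drug sensitivity score was calculated from the area under the fitted dose-response curve.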

BT-474 = test: as above
Procedure, shortened: as §1

CAL-51 [1] = test: as above
Procedure, shortened: as §1

CAL-85-1 [2] = test: as above
Procedure, shortened: as §1

MDA-MB-231 = test: as above
Procedure, shortened: as §1

CAL-148 = test: as above
Procedure, shortened: as §1

MDA-MB-468 [3] = test: as above
Procedure, shortened: as §1

HCC1937 [4] = test: as above
Procedure, shortened: as §1

BT-549 = test: as above
Procedure, shortened: as §1

Hs578T = test: as above
Procedure, shortened: as §1

MDA-MB-436 = test: as above
Procedure, shortened: as §1

CAL-120 = test: as above
Procedure, shortened: as §1

MCF-10A = test: as above
Procedure, shortened: as §1

MFM-223 [5] = test: as above
Procedure, shortened: as §1

HCC1599 [6] = test: as above
Procedure, shortened: as §1

DU-4475 = test: as above
Procedure, shortened: as §1

MDA-MB-453 = test: as above
Procedure, shortened: as §1

CAL-51 [7] = test: normalised viability (% of control), CellTiter-Blue; higher = more viable cells (about 100 = DMSO control)
Procedure, shortened: (§2)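 The reported figure is normalised viability at a single listed concentration of the series. Breast cancer cell lines (20 µl suspension) went onto 384-well plates holding compound in 5 µl medium for 72 h. CellTiter-Blue (2.5 µl, 2 h, 37 °C) was read by fluorescence at 560/590 nm, and each plate was scaled to vehicle at 100 and a positive kill control at 0.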

CAL-85-1 [8] = test: as above
Procedure, shortened: as §2

MDA-MB-468 [9] = test: as above
Procedure, shortened: as §2

HCC1937 [10] = test: as above
Procedure, shortened: as §2

MFM-223 [11] = test: as above
Procedure, shortened: as §2

HCC1599 [12] = test: as above
Procedure, shortened: as §2

HDQ-P1 [13] = test: as above
Procedure, shortened: as §2

HDQ-P1 [14] = test: drug sensitivity score (DSS), CellTox Green (DSS (AUC-based score)); higher = stronger drug effect (viability inhibition or cytotoxicity); extreme values may be limits of the assay
Procedure, shortened: as §1

Cc1ccc(C(=O)N(CCCN)[C@@H](c2oc3cc(Cl)ccc3c(=O)c2Cc2ccccc2)C(C)C)cc1
drug sensitivity score (HCC1143): 0
drug sensitivity score (BT-474): 0
drug sensitivity score (CAL-51 [1]): 0
drug sensitivity score (CAL-85-1 [2]): 0
drug sensitivity score (MDA-MB-231): 0
drug sensitivity score (CAL-148): 0
drug sensitivity score (MDA-MB-468 [3]): 0
drug sensitivity score (HCC1937 [4]): 0
drug sensitivity score (BT-549): 0
drug sensitivity score (Hs578T): 2.03
drug sensitivity score (MDA-MB-436): 0
drug sensitivity score (CAL-120): 0
drug sensitivity score (MCF-10A): 0
drug sensitivity score (MFM-223 [5]): 0
drug sensitivity score (HCC1599 [6]): 0
drug sensitivity score (DU-4475): 0
drug sensitivity score (MDA-MB-453): 0
normalised viability (CAL-51 [7]; 0.3 nM): 106%
normalised viability (CAL-51 [7]; 3 nM): 101%
normalised viability (CAL-51 [7]; 10 nM): 38.6%
normalised viability (CAL-85-1 [8]; 0.3 nM): 92.9%
normalised viability (CAL-85-1 [8]; 3 nM): 90.1%
normalised viability (CAL-85-1 [8]; 10 nM): 33%
normalised viability (MDA-MB-468 [9]; 1 nM): 88.4%
normalised viability (MDA-MB-468 [9]; 100 nM): 26.5%
normalised viability (MDA-MB-468 [9]; 1000 nM): 36.3%
normalised viability (HCC1937 [10]; 1 nM): 51.2%
normalised viability (HCC1937 [10]; 100 nM): 26.6%
normalised viability (HCC1937 [10]; 1000 nM): 22.3%
normalised viability (MFM-223 [11]; 1 nM): 105%
normalised viability (MFM-223 [11]; 100 nM): 43.4%
normalised viability (MFM-223 [11]; 1000 nM): 40.6%
normalised viability (HCC1599 [12]; 1 nM): 97.2%
normalised viability (HCC1599 [12]; 100 nM): 94.1%
normalised viability (HCC1599 [12]; 1000 nM): 81.7%
normalised viability (HDQ-P1 [13]; 0.3 nM): 128%
normalised viability (HDQ-P1 [13]; 3 nM): 75.8%
normalised viability (HDQ-P1 [13]; 10 nM): 59.1%

CO[C@H]1/C=C\C=C(/C)C(=O)NC2=CC(=O)C(NCCN(C)C)=C(C[C@@H](C)C[C@H](OC)[C@H](O)[C@@H](C)/C=C(\C)[C@@H]1OC(N)=O)C2=O [Alvespimycin]
drug sensitivity score (HCC1143): 9.99
drug sensitivity score (BT-474): 4.58
drug sensitivity score (CAL-51 [1]): 6.02
drug sensitivity score (CAL-85-1 [2]): 6.41
drug sensitivity score (MDA-MB-231): 7.29
drug sensitivity score (CAL-148): 9.12
drug sensitivity score (MDA-MB-468 [3]): 1.6
drug sensitivity score (HCC1937 [4]): 1.6
drug sensitivity score (BT-549): 0
drug sensitivity score (Hs578T): 7.05
drug sensitivity score (MDA-MB-436): 0
drug sensitivity score (CAL-120): 0.117
drug sensitivity score (MCF-10A): 13
drug sensitivity score (MFM-223 [5]): 0
drug sensitivity score (HCC1599 [6]): 0
drug sensitivity score (DU-4475): 4.5
drug sensitivity score (HDQ-P1 [14]): 4.4
drug sensitivity score (MDA-MB-453): 0.783
normalised viability (CAL-51 [7]; 0.3 nM): 97%
normalised viability (CAL-51 [7]; 3 nM): 96%
normalised viability (CAL-51 [7]; 10 nM): 86.8%
normalised viability (CAL-85-1 [8]; 0.3 nM): 111%
normalised viability (CAL-85-1 [8]; 3 nM): 85.5%
normalised viability (CAL-85-1 [8]; 10 nM): 95.1%
normalised viability (MDA-MB-468 [9]; 1 nM): 111%
normalised viability (MDA-MB-468 [9]; 100 nM): 44.6%
normalised viability (MDA-MB-468 [9]; 1000 nM): 29.3%
normalised viability (HCC1937 [10]; 1 nM): 110%
normalised viability (HCC1937 [10]; 100 nM): 40.7%
normalised viability (HCC1937 [10]; 1000 nM): 29%
normalised viability (MFM-223 [11]; 1 nM): 97.4%
normalised viability (MFM-223 [11]; 100 nM): 27.3%
normalised viability (MFM-223 [11]; 1000 nM): 23.4%
normalised viability (HCC1599 [12]; 1 nM): 72.9%
normalised viability (HCC1599 [12]; 100 nM): 43%
normalised viability (HCC1599 [12]; 1000 nM): 31.3%
normalised viability (HDQ-P1 [13]; 0.3 nM): 99.3%
normalised viability (HDQ-P1 [13]; 3 nM): 102%
normalised viability (HDQ-P1 [13]; 10 nM): 112%

O=C(O)c1ccc(-c2c[nH]c3ncc(-c4ccccc4)cc23)cc1C1CCCC1
drug sensitivity score (HCC1143): 0
drug sensitivity score (BT-474): 0
drug sensitivity score (CAL-51 [1]): 0
drug sensitivity score (CAL-85-1 [2]): 0
drug sensitivity score (MDA-MB-231): 0
drug sensitivity score (CAL-148): 0
drug sensitivity score (MDA-MB-468 [3]): 0
drug sensitivity score (BT-549): 0
drug sensitivity score (Hs578T): 0
drug sensitivity score (MDA-MB-436): 0
drug sensitivity score (CAL-120): 0
drug sensitivity score (MCF-10A): 0
drug sensitivity score (MFM-223 [5]): 1.51
drug sensitivity score (HCC1599 [6]): 0
drug sensitivity score (DU-4475): 0
drug sensitivity score (HDQ-P1 [14]): 0
drug sensitivity score (MDA-MB-453): 0

Cn1c(Nc2ccc(C(F)(F)F)cc2)nc2cc(Oc3ccnc(-c4ncc(C(F)(F)F)[nH]4)c3)ccc21 [RAF265]
drug sensitivity score (HCC1143): 0
drug sensitivity score (BT-474): 0
drug sensitivity score (CAL-51 [1]): 0
drug sensitivity score (CAL-85-1 [2]): 4.33
drug sensitivity score (MDA-MB-231): 0
drug sensitivity score (CAL-148): 0
drug sensitivity score (MDA-MB-468 [3]): 0
drug sensitivity score (HCC1937 [4]): 0
drug sensitivity score (BT-549): 9.17
drug sensitivity score (Hs578T): 0
drug sensitivity score (MDA-MB-436): 0
drug sensitivity score (CAL-120): 0
drug sensitivity score (MFM-223 [5]): 2.58
drug sensitivity score (HCC1599 [6]): 0
drug sensitivity score (DU-4475): 0
drug sensitivity score (HDQ-P1 [14]): 0
drug sensitivity score (MDA-MB-453): 0
normalised viability (CAL-51 [7]; 0.3 nM): 91.4%
normalised viability (CAL-51 [7]; 3 nM): 94.2%
normalised viability (CAL-51 [7]; 10 nM): 99.1%
normalised viability (CAL-85-1 [8]; 0.3 nM): 87.4%
normalised viability (CAL-85-1 [8]; 3 nM): 83.3%
normalised viability (CAL-85-1 [8]; 10 nM): 89.8%
normalised viability (MDA-MB-468 [9]; 1 nM): 110%
normalised viability (MDA-MB-468 [9]; 100 nM): 94.2%
normalised viability (MDA-MB-468 [9]; 1000 nM): 80.1%
normalised viability (HCC1937 [10]; 1 nM): 103%
normalised viability (HCC1937 [10]; 100 nM): 78.7%
normalised viability (HCC1937 [10]; 1000 nM): 62%
normalised viability (MFM-223 [11]; 1 nM): 94.9%
normalised viability (MFM-223 [11]; 100 nM): 74.7%
normalised viability (MFM-223 [11]; 1000 nM): 43.8%
normalised viability (HCC1599 [12]; 1 nM): 104%
normalised viability (HCC1599 [12]; 100 nM): 106%
normalised viability (HCC1599 [12]; 1000 nM): 106%
normalised viability (HDQ-P1 [13]; 0.3 nM): 95.3%
normalised viability (HDQ-P1 [13]; 3 nM): 94.6%
normalised viability (HDQ-P1 [13]; 10 nM): 79.7%

CCCCCCCCCCCCCCCCCCOP(=O)([O-])OC1CC[N+](C)(C)CC1 [Perifosine]
drug sensitivity score (HCC1143): 0
drug sensitivity score (BT-474): 0
drug sensitivity score (CAL-51 [1]): 0
drug sensitivity score (CAL-85-1 [2]): 0
drug sensitivity score (MDA-MB-231): 0
drug sensitivity score (CAL-148): 0
drug sensitivity score (MDA-MB-468 [3]): 0
drug sensitivity score (HCC1937 [4]): 0
drug sensitivity score (BT-549): 0
drug sensitivity score (Hs578T): 0
drug sensitivity score (MDA-MB-436): 0
drug sensitivity score (CAL-120): 0
drug sensitivity score (MCF-10A): 0
drug sensitivity score (MFM-223 [5]): 0
drug sensitivity score (HCC1599 [6]): 0
drug sensitivity score (DU-4475): 0
drug sensitivity score (HDQ-P1 [14]): 0
drug sensitivity score (MDA-MB-453): 0

CS(=O)(=O)c1ccc(C2=C(c3ccccc3)C(=O)OC2)cc1 [Rofecoxib]
drug sensitivity score (HCC1143): 0
drug sensitivity score (BT-474): 1.58
drug sensitivity score (CAL-51 [1]): 0
drug sensitivity score (CAL-85-1 [2]): 0
drug sensitivity score (MDA-MB-231): 0
drug sensitivity score (CAL-148): 0
drug sensitivity score (MDA-MB-468 [3]): 3.77
drug sensitivity score (HCC1937 [4]): 1.95
drug sensitivity score (BT-549): 0
drug sensitivity score (Hs578T): 0
drug sensitivity score (MDA-MB-436): 0
drug sensitivity score (CAL-120): 0
drug sensitivity score (MCF-10A): 0
drug sensitivity score (MFM-223 [5]): 0
drug sensitivity score (HCC1599 [6]): 0
drug sensitivity score (DU-4475): 0
drug sensitivity score (HDQ-P1 [14]): 0
drug sensitivity score (MDA-MB-453): 0
